Patent publication US11639343B2, “Compounds targeting and degrading BCR-ABL protein and its antitumor application” (ShanghaiTech University, priority 2019, dated 2023)

Experiments:
K562 (BCR-ABL+) cells = assay: CCK-8 proliferation inhibition, K562 cells; type: cell-based, human; settings: Homo sapiens, K562, 48 h, CCK-8, 48 hours of drug treatment; read-out: Proliferative inhibitory activity (IC50, nM) K562 (BCR-ABL+);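 note: Ten-point threefold dilution series starting at 10 µM, absorbance at 450 nm after 2 h with CCK-8, DMSO as negative control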
U937 (BCR-ABL-) cells = assay: CCK-8 proliferation inhibition, U937 cells; type: cell-based, human; settings: Homo sapiens, U-937; CCK-8, 48 hours of drug treatment, highest concentration 10 μM; read-out: Proliferative inhibitory activity (IC50, nM) U937 (BCR-ABL-);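 note: Ten-point threefold dilution series, absorbance at 450 nm after 2 h with CCK-8 reagent, DMSO as negative control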
[1] = test system: BCR-ABL-G250E/V299L/F317L/F317V; assay: Western blot degradation of BCR-ABL drug resistance mutants in U937 cells; type: cell-based, human; settings: U937 cells stably expressing mutants, 24 hours, 10 nM-10 μM
Protocol: (1) Establishment of stable BCR-ABL mutant: the target fragment of BCR-ABL was cloned into retroviral vector pmigrl, and then PMIGR1-BCR-ABL-G250E/E255K/V299L/F317L/F317V/T315I/T315A and other mutant forms were obtained by using Stratagene-QuikChange® Site-Directed Mutagenesis Kit. Finally, the cell lines stably expressing BCR-ABL wild type and mutant were established on U937 cells by retrovirus infection system.
(1) Cell seed: Established cells are added to the 24 well plates, with a cell density of 3×10^5/ml and a total volume of 1.5 ml; Four concentration gradients, 10 nm, 100 nm, 1 μM, and 10 μM, are respectively set for PROTAD series compounds. […] After 24 hours of drug treatment, the cells were collected in 1.5 ml ep tube, centrifuged at 3000 rpm for 3 minutes, and then added 30 μL PBS and 30 μL 2×SDS to cell precipitated, lysate Heat at 100° C. for 5 minutes, then placed on ice for 5 minutes, centrifuged at 10000 rpm for 5 minutes, and take the supernatant as the total protein extracted. The effect of SIAS151178 on the mutational BCR-ABL protein was detected by Western blotting.

[2] = test system: K562 cell transplantation tumor; assay: BCR-ABL+ K562 cell transplanted tumor model in mice; type: in vivo
Source text: (1) Establishment of K562 Luc cells: the target fragment of luciferase was cloned into lentivirus vector Plenti-IRES-ZSGREEN, and a K562-Luc cell line stably expressing luciferase was established on K562 cells by using lentivirus infection system.
(§1) (2) BCR-ABL+K562 cell transplanted mouse model: 5*106 k562 Luc cells were inoculated into the subcutaneous of immunodeficient NOD-SCID mice. After 2 weeks, the tumor volume of mice was nearly 200 mm^3. The mice were randomly divided into 5 groups. […] At the same time, the mice were imaged in vivo to observe the tumor-bearing condition. Then stop the administration and observe the recurrence of the tumor.

[3] = Body weight and toxicity in the K562 transplanted mouse model; type: in vivo; settings: NOD-SCID mice, during the experiment period
Source text: as §1

BCR-ABL signal pathway = BCR-ABL signal pathway activity in vivo
Source text: (§2) We further study whether PROTAD compound of the disclosure can induce BCR-ABL protein degradation in vivo. We still took the compound SIAIS151178 of Dasa-Lin-VHL system as the representative one.

[4] = test system: Src protein kinase, kit, PDGFR; assay: Degradation of other tyrosine kinase receptors
c-ABL protein [5] = molecular target: T1, c-ABL protein (Homo sapiens, UniProt P00519); assay: Degradation of c-ABL protein in vivo; set-up: from tissue; host or cells: in vivo
Source text: as §2

HEK293 (BCR-ABL-) cells = assay: CCK-8 proliferation inhibition, HEK293 cells; settings: Homo sapiens, HEK293, 48 h, read-out: Proliferative inhibitory activity (IC50, nM) HEK293 (BCR-ABL-);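 note: Ten-point threefold dilution series starting at 10 µM, CCK-8 absorbance at 450 nm read after 2 h reagent incubation, DMSO-treated cells as negative control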
c-ABL protein [6] = molecular target: T1, c-ABL protein; assay: Western blot degradation of c-ABL in K562 cells; type: cell-based; set-up: Western blot was used to detect the expression of BCR-ABL and c-ABL protein in K562 cells; endogenous in cells; host or cells: K562; settings: 16 hours, 1 nM-10 μM
Summary of the method: (§3)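 Lysates were normalized by Bradford and run on SDS-PAGE with nitrocellulose transfer. DC50 was derived from band intensities by non-linear regression.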

BCR-ABL protein [7] = molecular target: T2, BCR-ABL protein (Homo sapiens, UniProt P00519); assay: Degradation of BCR-ABL protein in vivo; set-up: BCR (fusion partner, P11274); from tissue; host or cells: in vivo; the other entry of the earlier key: BCR (P11274, Breakpoint cluster region protein)
Source text: as §2

BCR-ABL protein [8] = molecular target: T2, BCR-ABL protein; assay: Western blot degradation of BCR-ABL in K562 cells; type: cell-based; set-up: Western blot was used to detect the expression of BCR-ABL and c-ABL protein in K562 cells; BCR (fusion partner, P11274); endogenous in cells; host or cells: K562; the other entry of the earlier key: BCR (P11274, Breakpoint cluster region protein); settings: 16 hours, 1 nM-10 μM
Summary of the method: as §3

T2 sequence (P00519 with tags, fused parts or gaps): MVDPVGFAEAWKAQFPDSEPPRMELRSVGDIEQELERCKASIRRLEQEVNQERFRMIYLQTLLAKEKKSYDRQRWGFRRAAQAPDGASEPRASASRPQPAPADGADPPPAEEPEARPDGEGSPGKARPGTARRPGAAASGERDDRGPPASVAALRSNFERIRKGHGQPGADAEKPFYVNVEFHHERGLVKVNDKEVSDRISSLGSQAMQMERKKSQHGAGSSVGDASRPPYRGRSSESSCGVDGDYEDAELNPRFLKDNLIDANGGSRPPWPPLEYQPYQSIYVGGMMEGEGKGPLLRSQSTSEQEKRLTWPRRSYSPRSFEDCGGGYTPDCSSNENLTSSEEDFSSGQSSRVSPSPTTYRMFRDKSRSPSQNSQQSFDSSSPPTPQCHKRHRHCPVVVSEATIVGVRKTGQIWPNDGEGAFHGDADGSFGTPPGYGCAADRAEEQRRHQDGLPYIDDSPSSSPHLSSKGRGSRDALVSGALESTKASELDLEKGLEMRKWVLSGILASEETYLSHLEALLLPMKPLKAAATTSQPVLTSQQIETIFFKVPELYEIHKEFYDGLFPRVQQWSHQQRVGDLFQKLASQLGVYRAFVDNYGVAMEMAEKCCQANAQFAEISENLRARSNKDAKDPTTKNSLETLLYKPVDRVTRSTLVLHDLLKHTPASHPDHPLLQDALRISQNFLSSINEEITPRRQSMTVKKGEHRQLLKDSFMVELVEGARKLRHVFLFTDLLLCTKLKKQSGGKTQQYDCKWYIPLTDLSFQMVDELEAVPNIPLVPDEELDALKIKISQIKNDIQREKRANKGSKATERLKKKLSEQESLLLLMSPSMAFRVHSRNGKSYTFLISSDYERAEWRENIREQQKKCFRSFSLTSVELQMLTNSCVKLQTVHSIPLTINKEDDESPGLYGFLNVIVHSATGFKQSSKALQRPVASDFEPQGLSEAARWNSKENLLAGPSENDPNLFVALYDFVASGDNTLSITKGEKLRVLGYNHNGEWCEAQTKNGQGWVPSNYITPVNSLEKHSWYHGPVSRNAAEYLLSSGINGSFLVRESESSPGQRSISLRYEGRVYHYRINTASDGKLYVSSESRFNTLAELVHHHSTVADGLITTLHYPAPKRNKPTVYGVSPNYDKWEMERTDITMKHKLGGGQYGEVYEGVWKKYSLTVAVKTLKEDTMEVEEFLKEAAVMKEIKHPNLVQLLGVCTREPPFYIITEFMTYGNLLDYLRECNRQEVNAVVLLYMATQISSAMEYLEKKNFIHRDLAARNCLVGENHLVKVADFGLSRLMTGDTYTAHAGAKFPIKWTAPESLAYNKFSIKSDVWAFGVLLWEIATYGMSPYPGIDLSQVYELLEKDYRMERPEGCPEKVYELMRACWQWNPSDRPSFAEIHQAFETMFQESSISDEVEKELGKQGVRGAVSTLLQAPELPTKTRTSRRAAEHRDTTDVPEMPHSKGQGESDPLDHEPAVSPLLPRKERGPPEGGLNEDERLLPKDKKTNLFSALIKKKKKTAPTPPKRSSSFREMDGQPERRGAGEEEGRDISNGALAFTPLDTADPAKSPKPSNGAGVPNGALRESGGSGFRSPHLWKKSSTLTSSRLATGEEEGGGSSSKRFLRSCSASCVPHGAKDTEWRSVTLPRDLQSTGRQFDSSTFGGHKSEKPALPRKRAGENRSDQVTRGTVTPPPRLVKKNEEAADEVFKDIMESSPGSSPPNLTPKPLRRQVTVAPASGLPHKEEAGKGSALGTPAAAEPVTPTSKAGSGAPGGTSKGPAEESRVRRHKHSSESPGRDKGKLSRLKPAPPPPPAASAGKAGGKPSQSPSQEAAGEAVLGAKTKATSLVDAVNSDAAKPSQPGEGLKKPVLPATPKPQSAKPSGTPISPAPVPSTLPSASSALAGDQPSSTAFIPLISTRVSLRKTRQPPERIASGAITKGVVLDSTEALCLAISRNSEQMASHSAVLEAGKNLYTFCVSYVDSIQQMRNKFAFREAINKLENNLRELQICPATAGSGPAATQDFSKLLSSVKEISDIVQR
T1 sequence (P00519 whole entry): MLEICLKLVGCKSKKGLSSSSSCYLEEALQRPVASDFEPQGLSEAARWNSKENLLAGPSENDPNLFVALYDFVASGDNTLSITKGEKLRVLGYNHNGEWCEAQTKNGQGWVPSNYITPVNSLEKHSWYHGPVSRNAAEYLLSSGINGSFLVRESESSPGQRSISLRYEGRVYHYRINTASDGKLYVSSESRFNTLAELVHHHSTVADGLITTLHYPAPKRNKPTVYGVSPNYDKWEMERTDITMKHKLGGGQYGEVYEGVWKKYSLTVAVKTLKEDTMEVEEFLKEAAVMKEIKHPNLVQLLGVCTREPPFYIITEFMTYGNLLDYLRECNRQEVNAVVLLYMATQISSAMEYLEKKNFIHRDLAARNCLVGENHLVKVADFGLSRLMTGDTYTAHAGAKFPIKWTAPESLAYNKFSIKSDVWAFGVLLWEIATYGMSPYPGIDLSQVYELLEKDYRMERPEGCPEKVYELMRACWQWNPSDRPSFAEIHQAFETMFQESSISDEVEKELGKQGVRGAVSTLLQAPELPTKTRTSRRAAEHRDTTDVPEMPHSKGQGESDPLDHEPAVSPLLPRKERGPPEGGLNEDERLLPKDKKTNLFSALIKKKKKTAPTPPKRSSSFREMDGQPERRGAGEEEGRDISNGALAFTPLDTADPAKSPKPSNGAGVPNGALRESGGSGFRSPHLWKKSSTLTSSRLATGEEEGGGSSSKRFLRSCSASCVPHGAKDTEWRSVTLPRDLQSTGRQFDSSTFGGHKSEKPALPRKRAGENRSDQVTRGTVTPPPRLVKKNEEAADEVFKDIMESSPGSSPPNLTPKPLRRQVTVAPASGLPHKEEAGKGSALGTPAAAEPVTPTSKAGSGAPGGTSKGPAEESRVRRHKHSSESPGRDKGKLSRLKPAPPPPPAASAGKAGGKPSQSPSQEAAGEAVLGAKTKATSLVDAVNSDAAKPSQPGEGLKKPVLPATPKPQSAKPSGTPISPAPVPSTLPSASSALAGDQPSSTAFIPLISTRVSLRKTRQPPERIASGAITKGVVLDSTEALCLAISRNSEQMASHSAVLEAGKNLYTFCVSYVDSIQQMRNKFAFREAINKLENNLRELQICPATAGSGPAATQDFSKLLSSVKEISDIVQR

Row | SMILES | IC50 (K562 (BCR-ABL+) cells) [nM] | IC50 (U937 (BCR-ABL-) cells) [nM] | degradation of BCR-ABL mutants related to clinical drug resistance [1] | tumor decrease ([2]; NOD-SCID mice, 15 mg/kg) | growth of K562 cell transplantation tumor ([2]; NOD-SCID mice, 5, 15, 45 mg/kg, 2 weeks) | bodyweight of mice [3] | toxic and side effects [3] | BCR-ABL signal pathway activity in vivo (BCR-ABL signal pathway) | degradation of other tyrosine kinase receptors [4] | degradation of c-ABL protein in vivo (c-ABL protein [5]) | IC50 (HEK293 (BCR-ABL-) cells) [nM] | DC50 (c-ABL protein [6]) [nM] | degradation of BCR-ABL protein in vivo (BCR-ABL protein [7]) | DC50 (BCR-ABL protein [8]) [nM]
1 | Cc1nc(Nc2ncc(C(=O)Nc3c(C)cccc3Cl)s2)cc(N2CCN(C(=O)CCCCCCC(=O)N[C@H](C(=O)N3C[C@H](O)C[C@H]3C(=O)NCc3ccc(-c4scnc4C)cc3)C(C)(C)C)CC2)n1 [SIAIS151178, N-(2-chloro-6-methylphenyl)-2-((6-(4-(8-(((S)-1-((2S,4R)-4-hydroxy-2-((4-(4-methylthiazol-5-yl)benzyl)carbamoyl)pyrrolidin-1-yl)-3,3-dimethyl-1-oxobutan-2-yl)amino)-8-oxooctanoyl)piperazin-1-yl)-2-methylpyrimidin-4-yl)amino)thiazole-5-carboxamide] | 41.3 | > 10000 | can significantly degrade the mutant forms of BCR-ABL-G250E/V299L/F317L/F317V in a dose-dependent manner | can cause tumor decrease | can inhibit the growth of K562 cell transplantation tumor in a dose-dependent manner | no significant effect on the bodyweight of mice | no obvious toxic and side effects were found | significantly inhibit the BCR-ABL signal pathway activity | can also degrade other tyrosine kinase receptors, such as Src protein kinase, kit, PDGFR | can also degrade BCR-ABL and c-ABL protein in a dose-dependent manner in vivo | > 10000 | 10 to 100 | can also degrade BCR-ABL and c-ABL protein in a dose-dependent manner in vivo | 1 to 10
2 | Cc1nc(Nc2ncc(C(=O)Nc3c(C)cccc3Cl)s2)cc(N2CCN(C(=O)CCCC(=O)Nc3cccc4c3C(=O)N(C3CCC(=O)NC3=O)C4=O)CC2)n1 (stereo not drawn) [SIAIS184053, N-(2-chloro-6-methylphenyl)-2-((6-(4-(5-((2-(2,6-dioxopiperidin-3-yl)-1,3-dioxoisoindolin-4-yl)amino)-5-oxopentanoyl)piperazin-1-yl)-2-methylpyrimidin-4-yl)amino)thiazole-5-carboxamide] | 16.5 | > 10000 |  |  |  |  |  |  |  |  | > 10000 | 10 to 100 |  | 10 to 100
3 | Cc1nc(Nc2ncc(C(=O)Nc3c(C)cccc3Cl)s2)cc(N2CCN(C(=O)COc3cccc4c3C(=O)N(C3CCC(=O)NC3=O)C4=O)CC2)n1 (stereo not drawn) [SIAIS184128, N-(2-chloro-6-methylphenyl)-2-((6-(4-(2-((2-(2,6-dioxopiperidin-3-yl)-1,3-dioxoisoindolin-4-yl)oxy)acetyl)piperazin-1-yl)-2-methylpyrimidin-4-yl)amino)thiazole-5-carboxamide] | 7 | > 10000 |  |  |  |  |  |  |  |  | > 10000 | 1 to 10 |  | 1 to 10
